From US10294207B2, “Pyrazole derivatives as TNIK, IKKϵ and TBK1 inhibitor and pharmaceutical composition comprising same” (GREEN CROSS CORPORATION, priority 2015, dated 2019)

Assays:
[1] = biological target: T1, TBK1 (Homo sapiens, UniProt Q9UHD2); test: TBK1 inhibition, ADP-Glo Kinase Assay; assay type: biochemical; conditions: luminometer
T1 construct: purchased Promega V3991
T1 sequence (Q9UHD2 1-729): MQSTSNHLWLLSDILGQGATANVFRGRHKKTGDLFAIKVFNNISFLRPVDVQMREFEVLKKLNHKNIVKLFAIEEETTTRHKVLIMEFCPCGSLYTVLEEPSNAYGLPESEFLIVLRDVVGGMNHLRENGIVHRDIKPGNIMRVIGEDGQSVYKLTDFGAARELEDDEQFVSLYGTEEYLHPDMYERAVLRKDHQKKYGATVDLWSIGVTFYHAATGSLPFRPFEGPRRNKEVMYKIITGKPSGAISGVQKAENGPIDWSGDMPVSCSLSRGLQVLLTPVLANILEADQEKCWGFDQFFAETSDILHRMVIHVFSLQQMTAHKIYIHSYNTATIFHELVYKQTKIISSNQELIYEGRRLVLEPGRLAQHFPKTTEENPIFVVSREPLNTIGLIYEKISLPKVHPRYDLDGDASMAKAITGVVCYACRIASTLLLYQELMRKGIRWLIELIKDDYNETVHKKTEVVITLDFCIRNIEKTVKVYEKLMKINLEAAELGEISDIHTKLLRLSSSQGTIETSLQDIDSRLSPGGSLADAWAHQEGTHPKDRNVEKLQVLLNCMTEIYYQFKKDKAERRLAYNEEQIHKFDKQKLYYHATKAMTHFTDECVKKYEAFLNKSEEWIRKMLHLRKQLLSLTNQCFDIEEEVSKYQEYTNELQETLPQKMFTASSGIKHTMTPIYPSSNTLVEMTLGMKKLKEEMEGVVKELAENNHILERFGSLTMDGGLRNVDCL
Outline: (§1)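 ADP-Glo luminescence reported ADP produced by each kinase, following the kit protocol. Reactions used commercial kinase enzyme systems in buffer of 40 mM Tris (pH 7.5), 20 mM MgCl2 and 0.1 mg/mL BSA.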

[2] = biological target: T2, IKKε (Homo sapiens, UniProt Q14164); test: IKKε inhibition, ADP-Glo Kinase Assay; assay type: biochemical; conditions: luminometer
T2 construct: purchased Invitrogen PR8031B
T2 sequence (Q14164 1-716): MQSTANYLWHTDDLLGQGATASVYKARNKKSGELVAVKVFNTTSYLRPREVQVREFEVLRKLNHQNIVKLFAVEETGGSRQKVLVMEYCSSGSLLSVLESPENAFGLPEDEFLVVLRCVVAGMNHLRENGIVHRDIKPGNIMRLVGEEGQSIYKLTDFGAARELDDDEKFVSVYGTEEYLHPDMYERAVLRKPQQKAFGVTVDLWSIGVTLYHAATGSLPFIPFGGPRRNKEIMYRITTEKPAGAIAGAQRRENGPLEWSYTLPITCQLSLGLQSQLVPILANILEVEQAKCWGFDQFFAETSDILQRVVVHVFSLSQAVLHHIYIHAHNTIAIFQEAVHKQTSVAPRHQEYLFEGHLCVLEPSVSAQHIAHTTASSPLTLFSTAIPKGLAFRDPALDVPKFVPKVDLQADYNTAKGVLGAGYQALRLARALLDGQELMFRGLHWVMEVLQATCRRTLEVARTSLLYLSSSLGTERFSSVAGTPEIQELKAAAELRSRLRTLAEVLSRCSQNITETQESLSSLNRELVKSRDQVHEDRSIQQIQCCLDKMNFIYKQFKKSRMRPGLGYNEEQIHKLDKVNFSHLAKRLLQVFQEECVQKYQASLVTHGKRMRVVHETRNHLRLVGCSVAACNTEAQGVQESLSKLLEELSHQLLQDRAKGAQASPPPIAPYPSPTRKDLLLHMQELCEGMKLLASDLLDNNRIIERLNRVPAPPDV
Outline: as §1

Row | IC50 [1] | IC50 [2] | SMILES
1 | 0.0037 µM | 0.037 µM | O=C(NCc1cccs1)c1ccc2[nH]nc(NC(=O)c3ccc(NCCN4CCOCC4)cc3)c2c1 [Example 153, 3-(4-((2-morpholinoethyl)amino)benzamido)-N-(thiophen-2-ylmethyl)-1H-indazole-5-carboxamide]
2 | 0.0086 µM | 0.13 µM | CN(C)CCCNc1ccc(C(=O)Nc2n[nH]c3ccc(C(=O)NCc4cccs4)cc23)cc1 [Example 154, 3-(4-((3-(Dimethylamino)propyl)amino)benzamido)-N-(thiophen-2-ylmethyl)-1H-indazole-5-carboxamide]
3 | 0.0064 µM | 0.094 µM | CNCCN(C)c1ccc(C(=O)Nc2n[nH]c3ccc(C(=O)NCc4cccs4)cc23)cc1 [Example 155, 3-(4-(Methyl(2-(methylamino)ethyl)amino)benzamido)-N-(thiophen-2-ylmethyl)-1H-indazole-5-carboxamide]
4 | 0.077 µM | 0.29 µM | O=C(NCc1cccs1)c1ccc2[nH]nc(NC(=O)c3cccc(N4CCOCC4)c3)c2c1 [Example 156, 3-(3-Morpholinobenzamido)-N-(thiophen-2-ylmethyl)-1H-indazole-5-carboxamide]
5 | 0.008 µM | 0.05 µM | O=C(NCc1cccs1)c1ccc2[nH]nc(NC(=O)c3ccc(NCC4CCCO4)cc3)c2c1 (stereo not shown) [Example 157, 3-(4-(((Tetrahydrofuran-2-yl)methyl)amino)benzamido)-N-(thiophen-2-ylmethyl)-1H-indazole-5-carboxamide]
6 | 0.0087 µM | 0.096 µM | CN(C)CCNc1ccc(C(=O)Nc2n[nH]c3ccc(C(=O)NCc4cccs4)cc23)cc1 [Example 158, 3-(4-((2-(Dimethylamino)ethyl)amino)benzamido)-N-(thiophen-2-ylmethyl)-1H-indazole-5-carboxamide]
7 | 0.033 µM | 0.31 µM | CC(C)CCNc1ccc(C(=O)Nc2n[nH]c3ccc(C(=O)NCc4cccs4)cc23)cc1 [Example 159, 3-(4-(Isopentylamino)benzamido)-N-(thiophen-2-ylmethyl)-1H-indazole-5-carboxamide]
8 | 1.1 µM | 3.9 µM | O=C(NCc1cccs1)c1ccc2[nH]nc(NC(=O)c3ccc(NCCC4=CCCCC4)cc3)c2c1 [Example 167, 3-(4-((2-(Cyclohex-1-en-1-yl)ethyl)amino)benzamido)-N-(thiophen-2-ylmethyl)-1H-indazole-5-carboxamide]
9 | 0.0003 µM | 0.0038 µM | O=C(NCc1cccs1)c1ccc2[nH]nc(NC(=O)c3ccc(N4CCNCC4)cc3)c2c1 [Example 171, 3-(4-(Piperazin-1-yl)benzamido)-N-(thiophen-2-ylmethyl)-1H-indazole-5-carboxamide]
10 | 0.035 µM | 0.31 µM | CN1CCN(c2ccc(C(=O)Nc3n[nH]c4ccc(C(=O)NCc5cnco5)cc34)cc2)CC1 [Example 172, 3-(4-(4-Methylpiperazin-1-yl)benzamido)-N-(oxazol-5-ylmethyl)-1H-indazole-5-carboxamide]
11 | 0.033 µM | 0.26 µM | CN1CCN(c2ccc(C(=O)Nc3n[nH]c4ccc(C(=O)NCc5ccon5)cc34)cc2)CC1 [Example 173, N-(Isoxazol-3-ylmethyl)-3-(4-(4-methylpiperazin-1-yl)benzamido)-1H-indazole-5-carboxamide]
12 | 0.045 µM | 0.54 µM | CN1CCN(c2ccc(C(=O)Nc3n[nH]c4ccc(C(=O)NCc5cscn5)cc34)cc2)CC1 [Example 174, 3-(4-(4-Methylpiperazin-1-yl)benzamido)-N-(thiazol-4-ylmethyl)-1H-indazole-5-carboxamide]
13 | 0.0024 µM | 0.0076 µM | C[C@@H](NC(=O)c1ccc2[nH]nc(NC(=O)c3ccc(N4CCN(C)CC4)cc3)c2c1)c1ccccc1 [Example 175, (R)-3-(4-(4-Methylpiperazin-1-yl)benzamido)-N-(1-phenylethyl)-1H-indazole-5-carboxamide]
14 | 0.058 µM | 0.34 µM | C[C@H](NC(=O)c1ccc2[nH]nc(NC(=O)c3ccc(N4CCN(C)CC4)cc3)c2c1)c1ccccc1 [Example 176, (S)-3-(4-(4-Methylpiperazin-1-yl)benzamido)-N-(1-phenylethyl)-1H-indazole-5-carboxamide]
15 | 0.011 µM | 0.033 µM | O=C(NCc1ccccc1)c1ccc2[nH]nc(NC(=O)c3ccc(N4CCOCC4)cc3)c2c1 [Example 177, N-Benzyl-3-(4-morpholinobenzamido)-1H-indazole-5-carboxamide]
16 | 0.037 µM | 0.16 µM | CN1CCN(c2ccc(C(=O)Nc3n[nH]c4ccc(C(=O)NCc5ccno5)cc34)cc2)CC1 [Example 178, N-(Isoxazol-5-ylmethyl)-3-(4-(4-methylpiperazin-1-yl)benzamido)-1H-indazole-5-carboxamide]
17 | 0.0012 µM | 0.019 µM | CC(NC(=O)c1ccc2[nH]nc(NC(=O)c3ccc(N4CCN(C)CC4)cc3)c2c1)c1ccccc1 (stereo not shown) [Example 179, 3-(4-(4-Methylpiperazin-1-yl)benzamido)-N-(1-phenylethyl)-1H-indazole-5-carboxamide]
18 | 0.0023 µM | 0.12 µM | CC(NC(=O)c1ccc2[nH]nc(NC(=O)c3ccc(N4CCOCC4)cc3)c2c1)c1ccccc1 (stereo not shown) [Example 180, 3-(4-Morpholinobenzamido)-N-(1-phenylethyl)-1H-indazole-5-carboxamide]
19 | 0.0039 µM | 0.022 µM | CC(NC(=O)c1ccc2[nH]nc(NC(=O)c3ccc(N4CCNCC4)cc3)c2c1)c1ccccc1 (stereo not shown) [Example 181, N-(1-Phenylethyl)-3-(4-(piperazin-1-yl)benzamido)-1H-indazole-5-carboxamide 2,2,2-trifluoroacetate]
20 | 0.003 µM | 0.0081 µM | CC1CN(c2ccc(C(=O)Nc3n[nH]c4ccc(C(=O)NC(C)c5ccccc5)cc34)cc2)CC(C)N1 (stereo not shown) [Example 182, 3-(4-(3,5-Dimethylpiperazin-1-yl)benzamido)-N-(1-phenylethyl)-1H-indazole-5-carboxamide]
21 | 0.0043 µM | 0.018 µM | CC1CN(c2ccc(C(=O)Nc3n[nH]c4ccc(C(=O)NC(C)c5ccccc5)cc34)cc2)CC(C)O1 (stereo not shown) [Example 183, 3-(4-(2,6-Dimethylmorpholino)benzamido)-N-(1-phenylethyl)-1H-indazole-5-carboxamide]
22 | 0.0037 µM | 0.015 µM | CC(NC(=O)c1ccc2[nH]nc(NC(=O)c3ccc(N4CCN[C@@H](C)C4)cc3)c2c1)c1ccccc1 (stereo partly shown) [Example 184, 3-(4-((8)-3-Methylpiperazin-1-yl)benzamido)-N-(1-phenylethyl)-1H-indazole-5-carboxamide 2,2,2-trifluoroacetate]
23 | 0.0033 µM | 0.019 µM | CC(NC(=O)c1ccc2[nH]nc(NC(=O)c3ccc(N4CCN[C@H](C)C4)cc3)c2c1)c1ccccc1 (stereo partly drawn) [Example 185, 3-(4-((R)-3-Methylpiperazin-1-yl)benzamido)-N-(1-phenylethyl)-1H-indazole-5-carboxamide 2,2,2-trifluoroacetate]
24 | 0.0027 µM | 0.012 µM | CC(NC(=O)c1ccc2[nH]nc(NC(=O)c3ccc(N4C[C@@H](C)N[C@@H](C)C4)cc3)c2c1)c1ccccc1 (stereo partly drawn) [Example 186, 3-(4-((3R,5S)-3,5-Dimethylpiperazin-1-yl)benzamido)-N-(1-phenylethyl)-1H-indazole-5-carboxamide]
25 | 0.0035 µM | 0.018 µM | CCC(NC(=O)c1ccc2[nH]nc(NC(=O)c3ccc(N4CCN(C)CC4)cc3)c2c1)c1ccccc1 (stereo not shown) [Example 187, 3-(4-(4-Methylpiperazin-1-yl)benzamido)-N-(1-phenylpropyl)-1H-indazole-5-carboxamide]
26 | 0.0032 µM | 0.017 µM | CCC(NC(=O)c1ccc2[nH]nc(NC(=O)c3ccc(N4CCOCC4)cc3)c2c1)c1ccccc1 (stereo not shown) [Example 188, 3-(4-Morpholinobenzamido)-N-(1-phenylpropyl)-1H-indazole-5-carboxamide]
